One data set relates to serum calcium level. Put plainly: Effect of the amount of the absorption aid on the decrease of serum calcium level (calcitonin suppositories, rats). The data set is classed as in vivo. The following applies: intrarectal, SD male rats, one hour. As to the method: (a) About 14 g of each of the absorption aids shown in Table 1 was added to 186 g of cacao butter, and they were well mixed by a grinder. Salmon caltintonin or [Asu^1,7 ]-eel calcitonin was added gradually and mixed to form a homogeneous composition. The composition was slightly heated to make it flowable, and about 80 mg of it was cast into a suppository container made for rats, and allowed to solidify by cooling to obtain a rat suppository having a diameter of about 3 mm and a length of about 6 mm. The suppository contained 0.7 MRC units of calcitonin.
The suppository was administered to the rectum of each of […] male rats (body weight about 200 g) and the concentration of calcium in the serum was measured 1, 2, 3, and 5 hours later to examine the absorbabillity of calcitonin from the rectum. The calcium level in the serum was measured by using a calcium level measuring kit of Yatoron Co., and five rats were used for each blood withdrawal. The results are shown in Table 1 as the decrease (%) of the serum calcium level from that before administration of the calcitonin-containing suppository.
(b) Suppositories containing 0.7 MRC unit of [Aus^1.7 ]-eel calcitonin per 80 mg were prepared in the same way as in (a) above by including each of the absorption aids shown in Table 2 in the amounts indicated. Each of the suppositories was intrarectally administered to SD male rats in the same way as in (a) above, and the decrease (%) of the serum calcium level was measured one hour after the administration.

Data set [1] relates to mucous membrane of the eyes (cornea, iris, conjunctiva). Put plainly: Draize eye irritation test of absorption aids in rabbits. How it is done:
Nothing was applied to the other eye. Thus, irritation of the absorption aid to the mucous membrane of the eyes were examined, and scores were calculated in accordance with the Draize's eye irritation evaluating method [Association of Foods, Drugs and Cosmetics" (1957)].

[2] abbreviates: absorption aid 0.8% of suppository with 0.7 MRC unit [Aus^1.7]-eel calcitonin per 80 mg.
The mark [3] stands for this setting: absorption aid 2.4% of suppository with 0.7 MRC unit [Aus^1.7]-eel calcitonin per 80 mg.
Where [4] appears, read: absorption aid 7.0% of suppository with 0.7 MRC unit [Aus^1.7]-eel calcitonin per 80 mg.
[5] abbreviates: 2.4 w/v % soln, 1 hours after application.
The mark [6] stands for this setting: 2.4 w/v % soln, 3 hours after application.
Setting [7] is: 2.4 w/v % soln, 6 hours after application.
[8] abbreviates: 2.4 w/v % soln, 24 hours after application.
The mark [9] stands for this setting: 2.4 w/v % soln, 48 hours after application.
Where [10] appears, read: 2.4 w/v % soln, 72 hours after application.
The mark [11] stands for this setting: 2.4 w/v % soln, 96 hours after application.
Setting [12] is: 2.4 w/v % soln, 168 hours after application.
Where [13] appears, read: aqueous solution applied dropwise to rabbit eye, Draize evaluation.
The mark [14] stands for this setting: 0.1 w/v % soln, 1 hours after application.
[15] abbreviates: 0.1 w/v % soln, 3 hours after application.
Where [16] appears, read: 0.1 w/v % soln, 6 hours after application.
Setting [17] is: 0.1 w/v % soln, 24 hours after application.
[18] abbreviates: 0.1 w/v % soln, 48 hours after application.
Setting [19] is: 0.1 w/v % soln, 72 hours after application.
Where [20] appears, read: 0.1 w/v % soln, 96 hours after application.
[21] abbreviates: 0.1 w/v % soln, 168 hours after application.

SMILES strings stand for the structures.

Consider `O=C1CCC(C(=O)O)N1` (racemic) [DL-Pyroglutamic acid], for which the “Decrease of the serum calcium level (%)” value in the data set on serum calcium level (setting [2]) is reported as 15.2%. For the same compound, in the data set with serum calcium level (setting [3]), the “Decrease of the serum calcium level (%)” value turned out to be 20.1%. Besides, the “Decrease of the serum calcium level (%)” value in the data set with serum calcium level (setting [4]) is recorded as 31.0%. Further, in data set [1] (rabbit, in vivo), the “Primary irritation scores on the eyes: Cornea” value came out at 0, the “Primary irritation scores on the eyes: Iris” value is 0 and the “irritation to the mucous membrane of the eyes (in words)” value (shortened to “irritation to the mucous membrane”) was “almost no irritation”.
Turning to `CC(=O)Oc1ccccc1C(=O)O` [Acetylsalicylic acid, reference compound], in data set [1] (rabbit, in vivo), the “Primary irritation scores on the eyes: Cornea” value was determined as 0, the “Primary irritation scores on the eyes: Iris” value is 0 and the “irritation to the mucous membrane” value is “almost no irritation”.
In the case of `O=C1O[C@H]([C@@H](O)CO)C(O)=C1O` [Ascorbic acid], the “Decrease of the serum calcium level (%)” value stood at 16.0% in the data set with serum calcium level (setting [2]), 22.3% with serum calcium level (setting [3]), 33.1% with serum calcium level (setting [4]) and 35.1% with serum calcium level (absorption aid 15.0% of suppository with 0.7 MRC unit [Aus^1.7]-eel calcitonin per 80 mg). The “Primary irritation scores on the eyes: Conjunctiva” value in data set [1] (setting [5]) is recorded as 3.3; in data set [1] (setting [6]), 1.3; in data set [1] (setting [7]), 1.3; in data set [1] (setting [8]), 0; in data set [1] (setting [9]) it was 0; in data set [1] (setting [10]), 0. Also, the “Primary irritation scores on the eyes: Conjunctiva” value in data set [1] (setting [11]) and in data set [1] (setting [12]) was 0 in each case. Moreover, the “Primary irritation scores on the eyes: Cornea” value in data set [1] (setting [5]), in data set [1] (setting [6]), in data set [1] (setting [7]), in data set [1] (setting [8]), in data set [1] (setting [9]) and in data set [1] (setting [10]) was 0 each time. Moreover, the “Primary irritation scores on the eyes: Cornea” value in data set [1] (setting [11]) and in data set [1] (setting [12]) was 0 each time. Also, the “Primary irritation scores on the eyes: Iris” value in data set [1] (setting [5]), in data set [1] (setting [6]), in data set [1] (setting [7]), in data set [1] (setting [8]), in data set [1] (setting [9]) and in data set [1] (setting [10]) was 0 in each case. Also, the “Primary irritation scores on the eyes: Iris” value in data set [1] (setting [11]) and in data set [1] (setting [12]) was 0 in each case. Further, the “Primary irritation scores on the eyes: Total” value in data set [1] (setting [5]) was 3.3; in data set [1] (setting [6]) it was 1.3; in data set [1] (setting [7]), 1.3; in data set [1] (setting [8]), 0; in data set [1] (setting [9]), 0; in data set [1] (setting [10]), 0. Further, the “Primary irritation scores on the eyes: Total” value in data set [1] (setting [11]) and in data set [1] (setting [12]) was 0 throughout. In addition, the “irritation to the mucous membrane” value in data set [1] (setting [13]) is “almost no irritation”.
As for `CCCCCCCCCCCCOS(=O)(=O)[O-].[Na+]` [Sodium Laurylsulfate, reference compound], the “Primary irritation scores on the eyes: Conjunctiva” value in data set [1] (setting [14]) is 4.0; in data set [1] (setting [15]) it was 4.0; in data set [1] (setting [16]), 0; in data set [1] (setting [17]) it was 0; in data set [1] (setting [18]) it was 0; in data set [1] (setting [19]) it was 0. Also, the “Primary irritation scores on the eyes: Conjunctiva” value in data set [1] (setting [20]) amounted to 0; in data set [1] (setting [21]), 0; in data set [1] (setting [5]), 13.3; in data set [1] (setting [6]) it was 12.7; in data set [1] (setting [7]), 11.3; in data set [1] (setting [8]), 8.0. The “Primary irritation scores on the eyes: Conjunctiva” value in data set [1] (setting [9]) came to 4.0; in data set [1] (setting [10]), 2.7; in data set [1] (setting [11]), 2.0; in data set [1] (setting [12]) it was 0.7. Moreover, the “Primary irritation scores on the eyes: Cornea” value in data set [1] (setting [14]), in data set [1] (setting [15]), in data set [1] (setting [16]), in data set [1] (setting [17]), in data set [1] (setting [18]) and in data set [1] (setting [19]) was 0 each time. The “Primary irritation scores on the eyes: Cornea” value in data set [1] (setting [20]), in data set [1] (setting [21]), in data set [1] (setting [5]), in data set [1] (setting [6]), in data set [1] (setting [7]) and in data set [1] (setting [8]) was 0 in each case. Besides, the “Primary irritation scores on the eyes: Cornea” value in data set [1] (setting [9]), in data set [1] (setting [10]), in data set [1] (setting [11]) and in data set [1] (setting [12]) was 0 in each case. For the same compound, the “Primary irritation scores on the eyes: Iris” value in data set [1] (setting [14]), in data set [1] (setting [15]), in data set [1] (setting [16]), in data set [1] (setting [17]), in data set [1] (setting [18]) and in data set [1] (setting [19]) was 0 throughout. Moreover, the “Primary irritation scores on the eyes: Iris” value in data set [1] (setting [20]) worked out at 0; in data set [1] (setting [21]), 0; in data set [1] (setting [5]), 5.0; in data set [1] (setting [6]), 0; in data set [1] (setting [7]), 0; in data set [1] (setting [8]) it was 0. Also, the “Primary irritation scores on the eyes: Iris” value in data set [1] (setting [9]), in data set [1] (setting [10]), in data set [1] (setting [11]) and in data set [1] (setting [12]) was 0 in each case. Besides, the “Primary irritation scores on the eyes: Total” value amounted to 4.0 in data set [1] (setting [14]); 4.0 in data set [1] (setting [15]); 0 in data set [1] (setting [16]); 0 in data set [1] (setting [17]); 0 in data set [1] (setting [18]); 0 in data set [1] (setting [19]). The “Primary irritation scores on the eyes: Total” value in data set [1] (setting [20]) is recorded as 0; in data set [1] (setting [21]) it was 0; in data set [1] (setting [5]), 18.3; in data set [1] (setting [6]) it was 12.7; in data set [1] (setting [7]), 11.3; in data set [1] (setting [8]), 8.0. Besides, the “Primary irritation scores on the eyes: Total” value in data set [1] (setting [9]) was 4.0; in data set [1] (setting [10]), 2.7; in data set [1] (setting [11]), 2.0; in data set [1] (setting [12]), 0.7. The “irritation to the mucous membrane” value in data set [1] (setting [13]) is “fairly strong irritation”.
For `O=C([O-])c1ccccc1O.[Na+]` [Sodium salicylate, reference compound], the “Decrease of the serum calcium level (%)” value in the data set with serum calcium level (setting [2]) amounted to 11.4%; in the data set with serum calcium level (setting [3]), 20.3%; in the data set on serum calcium level (setting [4]) it was 29.6%.
